According to patent publication US20230365576A1, “BRM Targeting Compounds And Associated Methods Of Use” (Prelude Therapeutics Incorporated, priority 2022, published 2023):

How the values were obtained:
[1] = biological target: T1, SMARCA2 (Homo sapiens, UniProt P51531); assay: SMARCA2 HiBiT degradation assay in HeLa cells; type: cell-based; conditions: 18 hours; for DC50: read-out: SMARCA2 IC50; for Dmax: HeLa
T1 construct: SMARCA2-HiBiT knock-in Hela monoclonal cell (CS302366); host or cells: HeLa (CRISPR HiBiT knock-in monoclonal line, heterozygous)
T1 sequence (P51531 whole entry): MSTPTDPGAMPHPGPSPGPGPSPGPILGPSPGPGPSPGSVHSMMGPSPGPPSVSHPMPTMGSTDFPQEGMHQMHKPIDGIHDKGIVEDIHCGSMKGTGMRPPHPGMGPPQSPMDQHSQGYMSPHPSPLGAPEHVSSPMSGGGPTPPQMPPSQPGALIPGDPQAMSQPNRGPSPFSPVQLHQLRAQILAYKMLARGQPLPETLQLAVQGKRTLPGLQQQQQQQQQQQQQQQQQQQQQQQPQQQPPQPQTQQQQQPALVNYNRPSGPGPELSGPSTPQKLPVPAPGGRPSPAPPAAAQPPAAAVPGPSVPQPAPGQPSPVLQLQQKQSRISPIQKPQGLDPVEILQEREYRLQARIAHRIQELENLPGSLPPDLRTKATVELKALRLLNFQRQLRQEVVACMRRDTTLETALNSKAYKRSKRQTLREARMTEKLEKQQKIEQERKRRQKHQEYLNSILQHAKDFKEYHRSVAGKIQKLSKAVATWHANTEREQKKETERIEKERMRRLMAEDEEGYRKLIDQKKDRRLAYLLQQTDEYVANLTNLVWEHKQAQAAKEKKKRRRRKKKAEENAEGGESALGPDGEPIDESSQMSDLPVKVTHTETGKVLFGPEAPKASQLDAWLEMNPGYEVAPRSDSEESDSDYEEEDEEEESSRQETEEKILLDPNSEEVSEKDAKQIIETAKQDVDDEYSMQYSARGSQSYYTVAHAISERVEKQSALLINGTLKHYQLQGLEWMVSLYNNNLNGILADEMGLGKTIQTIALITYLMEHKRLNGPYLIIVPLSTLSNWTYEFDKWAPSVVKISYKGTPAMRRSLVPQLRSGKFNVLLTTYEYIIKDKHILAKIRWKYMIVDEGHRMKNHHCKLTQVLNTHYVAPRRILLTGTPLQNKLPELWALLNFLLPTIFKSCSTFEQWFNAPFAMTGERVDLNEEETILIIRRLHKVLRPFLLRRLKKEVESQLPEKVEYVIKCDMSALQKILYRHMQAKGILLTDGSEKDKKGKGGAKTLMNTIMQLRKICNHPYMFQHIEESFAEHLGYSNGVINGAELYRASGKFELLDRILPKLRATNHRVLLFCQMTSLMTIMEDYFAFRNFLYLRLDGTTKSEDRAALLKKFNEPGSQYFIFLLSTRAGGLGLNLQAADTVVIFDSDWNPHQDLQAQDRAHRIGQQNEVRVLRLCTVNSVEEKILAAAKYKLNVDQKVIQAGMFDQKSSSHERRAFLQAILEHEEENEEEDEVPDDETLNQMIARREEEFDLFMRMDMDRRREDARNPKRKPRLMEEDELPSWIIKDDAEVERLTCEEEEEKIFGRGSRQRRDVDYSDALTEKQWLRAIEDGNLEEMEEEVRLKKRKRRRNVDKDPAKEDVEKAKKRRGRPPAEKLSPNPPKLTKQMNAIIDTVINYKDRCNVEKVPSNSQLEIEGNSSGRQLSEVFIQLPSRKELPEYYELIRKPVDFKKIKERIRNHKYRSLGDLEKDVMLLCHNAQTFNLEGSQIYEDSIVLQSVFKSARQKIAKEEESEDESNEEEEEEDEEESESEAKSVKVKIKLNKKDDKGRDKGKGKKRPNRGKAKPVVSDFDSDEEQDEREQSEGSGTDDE
In short: (§1)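 Degradation measured as HiBiT luminescence (Nano-Glo lytic reagent) after 18 h compound exposure at 37° C. Cells were HeLa clones carrying heterozygous HiBiT tags on SMARCA2 or SMARCA4, 2500 per well; compounds at 3-fold serial dilution from 10 μM.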

[2] = biological target: T2, SMARCA4 (Homo sapiens, UniProt P51532); assay: SMARCA4 HiBiT degradation assay in HeLa cells; type: cell-based; conditions: 18 hours; for Dmax: HeLa
T2 construct: SMARCA4-HiBiT knock-in Hela monoclonal cell (CS3023226) were purchased from Promega; host or cells: HeLa (CRISPR HiBiT knock-in monoclonal line, heterozygous)
T2 sequence (P51532 whole entry): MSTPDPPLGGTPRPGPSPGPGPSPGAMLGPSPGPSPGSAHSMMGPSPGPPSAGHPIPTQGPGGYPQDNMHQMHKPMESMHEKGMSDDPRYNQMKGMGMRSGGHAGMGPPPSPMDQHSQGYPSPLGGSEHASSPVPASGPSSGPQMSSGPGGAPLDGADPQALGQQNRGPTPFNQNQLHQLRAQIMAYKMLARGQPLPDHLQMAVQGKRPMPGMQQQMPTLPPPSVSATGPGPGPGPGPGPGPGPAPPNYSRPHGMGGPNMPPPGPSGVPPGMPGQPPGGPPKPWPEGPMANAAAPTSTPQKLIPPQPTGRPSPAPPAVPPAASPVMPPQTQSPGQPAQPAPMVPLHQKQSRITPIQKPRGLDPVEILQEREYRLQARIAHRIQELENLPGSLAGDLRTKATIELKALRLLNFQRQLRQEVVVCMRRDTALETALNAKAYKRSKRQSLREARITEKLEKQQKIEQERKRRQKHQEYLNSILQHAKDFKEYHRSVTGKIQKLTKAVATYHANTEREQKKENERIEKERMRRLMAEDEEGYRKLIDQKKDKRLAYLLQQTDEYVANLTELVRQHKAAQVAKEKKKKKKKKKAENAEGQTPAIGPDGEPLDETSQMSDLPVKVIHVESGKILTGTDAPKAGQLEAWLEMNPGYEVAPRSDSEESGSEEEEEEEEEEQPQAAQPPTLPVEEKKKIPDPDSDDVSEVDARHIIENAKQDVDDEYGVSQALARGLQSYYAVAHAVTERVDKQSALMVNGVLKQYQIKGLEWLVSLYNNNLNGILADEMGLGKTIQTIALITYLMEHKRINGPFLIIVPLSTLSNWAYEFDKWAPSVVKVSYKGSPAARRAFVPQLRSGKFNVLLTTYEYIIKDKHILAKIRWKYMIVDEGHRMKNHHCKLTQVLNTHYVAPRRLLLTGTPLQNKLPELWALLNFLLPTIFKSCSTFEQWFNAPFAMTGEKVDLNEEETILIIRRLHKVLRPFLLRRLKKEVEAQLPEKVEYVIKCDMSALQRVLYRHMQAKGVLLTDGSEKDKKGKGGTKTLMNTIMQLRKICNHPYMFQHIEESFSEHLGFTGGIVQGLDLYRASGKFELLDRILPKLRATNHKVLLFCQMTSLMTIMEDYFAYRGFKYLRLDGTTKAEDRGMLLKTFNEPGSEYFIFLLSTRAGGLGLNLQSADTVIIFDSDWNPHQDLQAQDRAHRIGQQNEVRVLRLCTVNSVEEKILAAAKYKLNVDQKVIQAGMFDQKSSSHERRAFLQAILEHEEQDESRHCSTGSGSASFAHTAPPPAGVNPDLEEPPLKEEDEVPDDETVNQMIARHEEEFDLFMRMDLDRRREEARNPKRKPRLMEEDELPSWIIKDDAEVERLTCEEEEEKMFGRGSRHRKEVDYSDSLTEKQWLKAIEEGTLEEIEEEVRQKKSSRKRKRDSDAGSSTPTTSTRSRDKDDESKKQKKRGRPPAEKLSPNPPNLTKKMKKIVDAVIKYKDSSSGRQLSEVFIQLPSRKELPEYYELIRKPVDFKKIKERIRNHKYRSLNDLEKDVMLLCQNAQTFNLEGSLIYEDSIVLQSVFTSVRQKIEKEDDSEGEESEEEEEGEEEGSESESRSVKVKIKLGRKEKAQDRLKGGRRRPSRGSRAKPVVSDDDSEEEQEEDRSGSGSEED
In short: as §1

Row | DC50 [1] [nM] | Dmax [1] [%] | DC50 [2] [nM] | Dmax [2] [%] | SMILES
1 | < 100 | > 75 | < 100 | < 50 | C[C@H]1CN2c3cc(-c4cc(F)cc(F)c4O)nnc3NC[C@H]2CN1C(=O)N1CCN(CC2CCN(c3ccc4c(c3)C(=O)N(C3CCC(=O)NC3=O)C4)CC2)CC1(C)C (stereo partly drawn) [Example 25, 3-(6-(4-((4-((6aS,9S)-2-(3,5-difluoro-2-hydroxyphenyl)-9-methyl-6,6a,7,8,9,10-hexahydro-5H-pyrazino[1′,2′:4,5]pyrazino[2,3-c]pyridazine-8-carbonyl)-3,3-dimethylpiperazin-1-yl)methyl)piperidin-1-yl)-1-oxoisoindolin-2-yl)piperidine-2,6-dione]
2 | < 100 | > 75 | < 100 | > 75 | C[C@@H]1CN(CC2CCN(c3ccc4c(c3)C(=O)N(C3CCC(=O)NC3=O)C4)CC2)C[C@@H](C)N1C(=O)N1CCN2c3cc(-c4cc(F)cc(F)c4O)nnc3NCC2(C)C1 (stereo partly drawn) [Example 33, 3-(6-(4-(((3R,5R)-4-(2-(3,5-difluoro-2-hydroxyphenyl)-6a-methyl-6,6a,7,8,9,10-hexahydro-5H-pyrazino[1′,2′:4,5]pyrazino[2,3-c]pyridazine-8-carbonyl)-3,5-dimethylpiperazin-1-yl)methyl)piperidin-1-yl)-1-oxoisoindolin-2-yl)piperidine-2,6-dione]
3 | < 100 | > 75 | < 100 | < 50 | C[C@@H]1CN(CC2CCN(c3ccc4c(c3)C(=O)N(C3CCC(=O)NC3=O)C4)CC2)C[C@@H](C)N1C(=O)N1CCN2c3cc(-c4cc(F)cc(F)c4O)nnc3NC[C@H]2C1 (stereo partly drawn) [Example 45, 3-(6-(4-(((3R,5R)-4-((S)-2-(3,5-difluoro-2-hydroxyphenyl)-6,6a,7,8,9,10-hexahydro-5H-pyrazino[1′,2′:4,5]pyrazino[2,3-c]pyridazine-8-carbonyl)-3,5-dimethylpiperazin-1-yl)methyl)piperidin-1-yl)-1-oxoisoindolin-2-yl)piperidine-2,6-dione]

The next lines start with the compound.

Row | SMILES | DC50 [1] [nM] | Dmax [1] [%] | DC50 [2] [nM] | Dmax [2] [%]
4 | C[C@@H]1CN(CC2CCN(c3ccc4c(c3)C(=O)N(C3CCC(=O)NC3=O)C4)CC2)C[C@H](C)N1C(=O)N1CCN2c3cc(-c4cc(F)cc(F)c4O)nnc3NCC2(C)C1 (stereo partly drawn) [Example 26, 3-(6-(4-(((3S,5R)-4-(2-(3,5-difluoro-2-hydroxyphenyl)-6a-methyl-6,6a,7,8,9,10-hexahydro-5H-pyrazino[1′,2′:4,5]pyrazino[2,3-c]pyridazine-8-carbonyl)-3,5-dimethylpiperazin-1-yl)methyl)piperidin-1-yl)-1-oxoisoindolin-2-yl)piperidine-2,6-dione] | < 100 | > 75 | < 100 | > 75
5 | C[C@@H]1CN(CC2CCN(c3ccc4c(c3)C(=O)N(C3CCC(=O)NC3=O)C4)CC2)C[C@H](C)N1C(=O)N1CCN2c3cc(-c4cccc(Cl)c4O)nnc3NCC2(C)C1 (stereo partly drawn) [Example 30, 3-(6-(4-(((3R,5S)-4-(2-(3-chloro-2-hydroxyphenyl)-6a-methyl-6,6a,7,8,9,10-hexahydro-5H-pyrazino[1′,2′:4,5]pyrazino[2,3-c]pyridazine-8-carbonyl)-3,5-dimethylpiperazin-1-yl)methyl)piperidin-1-yl)-1-oxoisoindolin-2-yl)piperidine-2,6-dione] | < 100 | > 75 | < 100 | 50 to 75
6 | C[C@@H]1CN(CC2CCN(c3ccc4c(c3)C(=O)N(C3CCC(=O)NC3=O)C4=O)CC2)C[C@H](C)N1C(=O)N1CCN2c3cc(-c4cc(F)cc(F)c4O)nnc3NCC2(C)C1 (stereo partly drawn) [Example 36, 5-(4-(((3S,5R)-4-(2-(3,5-difluoro-2-hydroxyphenyl)-6a-methyl-6,6a,7,8,9,10-hexahydro-5H-pyrazino[1′,2′:4,5]pyrazino[2,3-c]pyridazine-8-carbonyl)-3,5-dimethylpiperazin-1-yl)methyl)piperidin-1-yl)-2-(2,6-dioxopiperidin-3-yl)isoindoline-1,3-dione] | < 100 | > 75 | < 100 | > 75
